From patent US20230028441A1, “NOVEL HETEROARYL-TRIAZOLE COMPOUNDS AS PESTICIDES” (Bayer Aktiengesellschaft, priority 2019, published 2023)

Experiments:
Format in all cases: in vivo
[1] = test system: larvae of the southern green stink bug (Nezara viridula); assay: Nezara viridula spray test; details: in Hordeum vulgare, 96 h
How it was run: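 Percent mortality of southern green stink bug larvae read 4 days after spraying infested Hordeum vulgare. Test solutions: compound in acetone plus dimethylformamide, diluted with emulsifier-containing water (1000 ppm alkylarylpolyglycol ether).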

[2] = test system: brown planthopper (Nilaparvata lugens); assay: Nilaparvata lugens spray test; details: in Oryza sativa, 96 h
Experimental: Solvent: 78.0 parts by weight of acetone • • 1.5 parts by weight of dimethylformamide
Emulsifier: alkylarylpolyglycol ether
To produce a suitable preparation of active compound, 1 part by weight of active compound is mixed with the stated amount of solvents and is diluted with water, containing an emulsifier concentration of 1000 ppm, to the desired concentration. Further test concentrations are prepared by dilution with emulsifier containing water.
Rice plants (Oryza sativa) are sprayed with a preparation of the active ingredient of the desired concentration and the plants are infested with the brown planthopper (Nilaparvata lugens).
After 4 days mortality in % is determined. 100% means all planthoppers have been killed and 0% means none of the planthoppers have been killed.

[3] = test system: larvae of the banded cucumber beetle (Diabrotica balteata); assay: Diabrotica balteata spray test; details: 168 h, 100 g/ha (=32 μg/well), after 7 days, wheat seeds, read-out: efficacy (seedlings grown up)
How it was run: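 Efficacy (%) read at day 7: 100% means seedlings grew like untreated, uninfested controls; 0% means no seedlings grew. Wheat seeds germinated 1 day on agar, sprayed with emulsified compound solution (1000 ppm emulsifier in water), then each well infested with 10-20 larvae.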

[4] = test system: fall armyworm larvae (Spodoptera frugiperda); assay: Spodoptera frugiperda spray test (maize leaf sections); details: 168 h
How it was run: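 Percent kill of Spodoptera frugiperda larvae was recorded 7 days after infesting dried, treated maize leaf sections. Spray solutions were made from an acetone/DMF compound preparation diluted with 1000 ppm emulsifier-containing water.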

Row | SMILES | mortality at 500 g/ha [1] | mortality at 500 g/ha [2] | pest or weed control at 32 µg/disc, 100 g/ha [3] | mortality at 100 g/ha [4]
1 | CC(NC(=O)c1cc(Cl)cc(C(C)(C)C#N)c1)c1nc(N(C)C)nn1-c1ncc(Cl)cn1 (stereo not shown) [I-170] | 100% | 100% | 100% | 100%
2 | C[C@H](NC(=O)c1cc(C(F)(F)F)cc(C(F)(F)F)c1)c1nc(N)nn1-c1ccc(C#N)cn1 [I-173] | 90% | 100% | 100% | 100%
3 | C[C@H](NC(=O)c1cc(C(F)(F)F)cc(C(F)(F)F)c1)c1nc(N(C)C)nn1-c1ncc(Cl)cn1 [I-176] | 100% | 100% | 100% | 100%
4 | C[C@H](NC(=O)c1cc(OC(F)(F)F)cc(C2CC2)c1)c1nc(N(C)C)nn1-c1ncc(Cl)cn1 [I-177] | 100% | 100% | 100% | 100%
5 | CCS(=O)(=O)c1cc(OC(F)(F)F)cc(C(=O)N[C@@H](C)c2nc(NC)nn2-c2ncccn2)c1 [I-180] | 100% | 100% | 100% | 100%
6 | CNc1nc([C@H](C)NC(=O)c2cc(C3CC3)cc(S(=O)(=O)C(F)(F)F)c2)n(-c2ncccn2)n1 [I-183] | 100% | 100% | 100% | 100%
7 | CNc1nc([C@H](C)NC(=O)c2cc(OC(F)(F)F)cc(S(C)(=O)=O)c2)n(-c2ncccn2)n1 [I-185] | 100% | 100% | 100% | 
8 | CNc1nc([C@H](C)NC(=O)c2cc(Cl)cc(S(=O)(=O)C(F)(F)F)c2)n(-c2ncccn2)n1 [I-186] | 100% | 100% | 100% | 100%
9 | C[C@H](NC(=O)c1cc(OC(F)(F)F)cc(S(C)(=O)=O)c1)c1nc(N)nn1-c1ncccn1 [I-188] | 100% | 100% |  | 
10 | CCS(=O)(=O)c1cc(C(=O)N[C@@H](C)c2nc(N)nn2-c2ncccn2)cc(C(F)(F)F)c1 [I-189] | 100% | 100% |  | 
11 | C[C@H](NC(=O)c1cc(C(F)(F)F)cc(S(C)(=O)=O)c1)c1nc(N)nn1-c1ncccn1 [I-211] | 100% | 100% |  | 
